Target: T1, Androgen receptor (Homo sapiens, UniProt P10275)
T1 sequence (P10275 whole entry): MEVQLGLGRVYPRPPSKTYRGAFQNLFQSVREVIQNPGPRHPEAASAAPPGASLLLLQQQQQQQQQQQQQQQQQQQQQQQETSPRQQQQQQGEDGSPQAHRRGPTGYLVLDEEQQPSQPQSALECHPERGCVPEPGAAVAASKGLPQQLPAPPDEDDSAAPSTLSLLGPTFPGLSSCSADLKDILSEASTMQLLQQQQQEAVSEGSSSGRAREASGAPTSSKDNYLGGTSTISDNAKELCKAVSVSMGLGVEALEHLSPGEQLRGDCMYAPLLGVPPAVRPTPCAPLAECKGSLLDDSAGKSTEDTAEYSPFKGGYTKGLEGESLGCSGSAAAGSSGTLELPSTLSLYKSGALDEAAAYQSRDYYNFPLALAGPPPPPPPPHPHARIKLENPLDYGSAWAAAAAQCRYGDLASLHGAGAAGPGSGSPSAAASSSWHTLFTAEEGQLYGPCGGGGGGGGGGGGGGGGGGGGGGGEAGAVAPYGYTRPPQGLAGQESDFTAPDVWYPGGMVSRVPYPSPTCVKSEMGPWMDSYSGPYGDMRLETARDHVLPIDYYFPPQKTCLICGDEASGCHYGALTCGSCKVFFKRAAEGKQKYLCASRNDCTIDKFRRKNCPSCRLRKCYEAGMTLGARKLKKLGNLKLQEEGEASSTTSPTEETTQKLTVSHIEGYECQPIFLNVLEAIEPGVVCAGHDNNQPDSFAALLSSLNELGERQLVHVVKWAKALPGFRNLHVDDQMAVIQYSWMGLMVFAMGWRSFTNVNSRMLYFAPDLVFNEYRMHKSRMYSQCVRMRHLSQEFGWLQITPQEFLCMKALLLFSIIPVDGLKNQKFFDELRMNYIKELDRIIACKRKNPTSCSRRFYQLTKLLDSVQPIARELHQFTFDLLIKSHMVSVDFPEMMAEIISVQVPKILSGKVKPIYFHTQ
Experiment: Agonist activity at androgen receptor (unknown origin) expressed in HeLa cells co-expressing PSA-(ARE)4-Luc13 assessed as induction of DHT-induced luciferase activity after […] by luciferase reporter gene assay

With `COc1ccc2c(c1)c(C)c(CCC(=O)NS(C)(=O)=O)n2C(=O)c1ccc(Cl)cc1` the “EC50” value was 140 pM.

In the case of `COc1ccc2c(c1)c(C)c(CCC(=O)O)n2C(=O)c1ccc(Cl)cc1`, the “EC50” value is reported as 150 pM.

In the case of `COc1ccc2c(c1)c(CC(=O)NS(=O)(=O)C(F)(F)F)cn2C(=O)c1ccc(Cl)cc1`, the “EC50” value is reported as 100 pM.

In the case of `COc1ccc2c(c1)c(CC(=O)O)c(C)n2C(=O)c1ccc(Cl)cc1` [indometacin], the “EC50” value is reported as 140 pM.
